Calls of active or inactive are those of the source. The calls are words filed in the database; no cut-off is given here.
Legend:
Type in all cases: functional, organism-based
Mus musculus [1] = assay: Effect on testosterone level in CD1 mouse plasma at 0.1 mg/kg, po after 7 days; set-up: dose 0.1 mg/kg
Mus musculus [2] = assay: Effect on dihydro testosterone level in CD1 mouse plasma at 0.1 mg/kg, po after 7 days; set-up: dose 0.1 mg/kg
Mus musculus [3] = assay: Ventral prostate involution in CD1 mouse at 30 mg/kg, po after 7 days; set-up: dose 30 mg/kg; conditions: Prostate gland
Mus musculus [4] = assay: Effect on testes weight in po dosed CD1 mouse after 7 days; conditions: Testis
Mus musculus [5] = assay: Effect on ventral prostate weight in po dosed CD1 mouse after 7 days; conditions: Prostate gland
Mus musculus [6] = assay: Effect on seminal vesicle weight in po dosed CD1 mouse after 7 days

Structure (SMILES) | Activity (Mus musculus [1]) | Activity (Mus musculus [2]) | Activity (Mus musculus [3]) | Activity (Mus musculus [4]) | Activity (Mus musculus [5]) | Activity (Mus musculus [6])
Oc1ccc([C@@H]2Oc3ccc(O)cc3[C@@H]3CCC[C@@H]32)cc1 | inactive | inactive | Active | inactive | Dose-dependent effect | inactive
CC(C)(C)NC(=O)[C@H]1CC[C@H]2[C@@H]3CC[C@H]4NC(=O)C=C[C@]4(C)[C@H]3CC[C@]12C | – | – | Active | – | – | –

Source: ChEMBL document CHEMBL1137384, “Benzopyrans are selective estrogen receptor beta agonists with novel activity in models of benign prostatic hyperplasia” (J Med Chem, 2006)
